Tested on: HSV-1
Assay: HSV-1 replication in infected Vero 76 cells, viral DNA detected by hybridization capture
Type: cell-based, herpes simplex virus 1
Conditions: Human alphaherpesvirus 1; HSV-1, Vero 76 cells, MOI=0.001, 40-48 hours incubation
Experimental: Vero 76 cells were maintained in MEM with Earle's salts, L-glutamine, 8% FBS (Hyclone, A-1111-L) and 100 units/mL Penicillin-100 μg/mL Streptomycin. For assay conditions, FBS was reduced to 2%. Cells are seeded into 96-well tissue culture plates at a density of 5×10^4 cells/well after being incubated for 45 min at 37° C. in the presence of HSV-1 or HSV-2 (MOI=0.001). Test compounds are added to the wells and the plates are incubated at 37° C. for 40-48 hours. Cell lysates are prepared as follows: media was removed and replaced with 150 μL/well 0.2 N NaOH with 1% Igepal CA 630 or NP-40. Plates were incubated up to 14 days at room temperature in a humidified chamber to prevent evaporation.
For the detection probe, a gel-purified, digoxigenin-labeled, 710-bp PCR fragment of the HSV UL-15 sequence was utilized. PCR conditions included 0.5 μM primers, 180 μM dTTP, 20 μM dUTP-digoxigenin (Boehringer Mannheim 1558706), 200 μM each of dATP, dCTP, and dGTP, 1× PCR Buffer II (Perkin Elmer), 2.5 mM MgCl2, 0.025 units/μL of AmpliTaq Gold polymerase (Perkin Elmer), and 5 ng of gel-purified HSV DNA per 100 μL Extension conditions were 10 min at 95° C., followed by 30 cycles of 95° C. for 1 min. 55° C. for 30 sec. and 72° C. for 2 min. The amplification was completed with a 10-min incubation at 72° C. […] Single-stranded transcripts were purified with Promega M13 Wizard kits. The final product was mixed 1:1 with a mixture of 6 M GuSCN, 100 mM EDTA and 200 μg/mL herring sperm DNA and stored at 4° C.
The capture DNA plasmid (HSV UL13 region in pUC) was linearized by cutting with Xbal, denatured for 15 min at 95° C. and diluted immediately into Reacti-Bind DNA Coating Solution (Pierce, 17250, diluted 1:1 with TE buffer, pH 8) at 1 ng/μL. 75 μL/well were added to Corning (#3922 or 9690) white 96-well plates and incubated at room temperature for at least 4 hrs before washing twice with 300 μL/well 0.2×SSC/0.05% Tween-20 (SSC/T buffer). The plates were then incubated overnight at room temperature with 150 μL/well 0.2 N NaOH, 1% IGEPAL and 10 μg/mL herring sperm DNA.
Twenty-seven (27) μL of cell lysate was combined with 45 μL of hybridization solution (final concentration: 3M GuSCN, 50 mM EDTA, 100 μg/ml salmon sperm DNA, 5× Denhardt's solution, 0.25×APE, and 5 ng of the digoxigenin-labeled detection probe). APE is 1.5 M NH4-acetate, 0.15 M ammonium phosphate monobasic, and 5 mM EDTA adjusted to pH 6.0. Mineral oil (50 μL) was added to prevent evaporation. The hybridization plates were incubated at 95° C. for 10 minutes to denature the DNA, then incubated at 42° C. overnight. The wells were washed 6× with 300 μL/well SSC/T buffer then incubated with 75 μL/well anti-digoxigenin- HRP-conjugated antibody (Boehringer Mannheim 1207733, 1:5000 in TE) for 30 min at room temperature. The wells were washed 6× with 300 μL/well with PBS/0.05% Tween-20 before 75 μL/well SuperSignal LBA substrate (Pierce) was added. The plates were incubated at room temperature for 30 minutes and chemiluminescence was measured in a Wallac Victor reader.
The following results were obtained for HSV-1.

Compound | IC50 [nM]
CSc1cc(NC2CCCC2)cc2c(-c3ccnc(NC4CCCC4)n3)c(-c3ccc(F)cc3)nn12 [Example 5, N-Cyclopentyl-3-[2-(cyclopentylamino)-4-pyrimidinyl]-2-(4-fluorophenyl)-7-(methylsulfanyl)pyrazolo[1,5-α]pyridin-5-amine] | 130
COc1ccc(-c2nn3c(SC(C)C)cc(NC4CCCC4)cc3c2-c2ccnc(NC3CCCC3)n2)cc1 [Example 11, N-Cyclopentyl-3-[2-(cyclopentylamino)-4-pyrimidinyl]-7-(isopropylsulfanyl)-2-(4-methoxyphenyl)pyrazolo[1,5-α]pyridin-5-amine] | 175
CC(C)Sc1cc(NC2CCCC2)cc2c(-c3ccnc(NC4CCCC4)n3)c(-c3ccc(F)cc3)nn12 [Example 13, N-Cyclopentyl-3-[2-(cyclopentylamino)-4-pyrimidinyl]-2-(4-fluorophenyl)-7-(isopropylsulfanyl)pyrazolo[1,5-α]pyridin-5-amine] | 260
Cc1cc(NC2CCCC2)cc2c(-c3ccnc(NC4CCCC4)n3)c(-c3ccc(F)cc3)nn12 [Example 3, N-Cyclopentyl-3-[2-(cyclopentylamino)-4-pyrimidinyl]-2-(4-fluorophenyl)-7-methylpyrazolo[1,5-α]pyridin-5-amine] | 322
COc1ccc(-c2nn3c(Sc4ccccc4)cc(NC4CCCC4)cc3c2-c2ccnc(NC3CCCC3)n2)cc1 [Example 12, N-Cyclopentyl-3-[2-(cyclopentylamino)-4-pyrimidinyl]-2-(4-methoxyphenyl)-7-(phenylsulfanyl)pyrazolo[1,5-α]pyridin-5-amine] | 2000
CCOc1cc(NC2CCCC2)cc2c(-c3ccnc(NC4CCCC4)n3)c(-c3ccc(F)cc3)nn12 [Example 4, N-Cyclopentyl-3-[2-(cyclopentylamino)-4-pyrimidinyl]-7-ethoxy-2-(4-fluorophenyl)pyrazolo[1,5-α]pyridin-5-amine] | 160
CCSc1cc(NC2CCCC2)cc2c(-c3ccnc(NC4CCCC4)n3)c(-c3ccc(F)cc3)nn12 [Example 2, N-Cyclopentyl-3-[2-(cyclopentylamino)-4-pyrimidinyl]-7-(ethylsulfanyl)-2-(4-fluorophenyl)pyrazolo[1,5-δ]pyridin-5-amine] | 74
COCCOc1cc(NC2CCCC2)cc2c(-c3ccnc(NC4CCCC4)n3)c(-c3ccc(F)cc3)nn12 [Example 6, N-Cyclopentyl-3-[2-(cyclopentylamino)-4-pyrimidinyl]-2-(4-fluorophenyl)-7-(2-methoxyethoxy)pyrazolo[1,5-α]pyridin-5-amine] | 82
COc1ccc(-c2nn3c(SC)cc(NC4CCCC4)cc3c2-c2ccnc(NC3CCCC3)n2)cc1 [Example 9, N-Cyclopentyl-3-[2-(cyclopentylamino)-4-pyrimidinyl]-2-(4-methoxyphenyl)-7-(methylsulfanyl)pyrazolo[1,5-α]pyridin-5-amine] | 135
CCSc1cc(NC2CCCC2)cc2c(-c3ccnc(NC4CCCC4)n3)c(-c3ccc(OC)cc3)nn12 [Example 10, N-Cyclopentyl-3-[2-(cyclopentylamino)-4-pyrimidinyl]-7-(ethylsulfanyl)-2-(4-methoxyphenyl)pyrazolo[1,5-α]pyridin-5-amine] | 46

Reference: US20040214834A1, “Pyrazolo-pyridines for the treatment of herpes infections” (priority 2001, published 2004)
